According to patent US7601687B2, “Mechanism for identifying drugs for the treatment of type II diabetes” (BioCrine AB, priority 2006, dated 2009):

Tests used:
PKB/c-Akt = PKB/c-Akt Ser473 phosphorylation and PKB activity in HIT cells; type: cell-based, hamster
Method: Phosphorylated PKB/c-Akt was analyzed by employing the PhosphoPlus Akt(Ser473) Antibody Kit (New England Biolabs) according to the manufacturer's instructions. Briefly, HIT cells were cultured as described above. […] Following centrifugation of the lysate for 20 min at 14,000×g and 4° C., aliquotes of the supernatant containing 200 μg protein were separated by SDS-PAGE over a 7.5% polyacrylamide gel. Proteins were electro-transferred onto PVDF-membrane (Immobilon-P, Millipore) overnight at stabilized 125 mA. Immunoblotting was performed with either rabbit polyclonal Phospho-Akt(Ser473) antibody or with rabbit polyclonal […] antibody and HRP-conjugated secondary antibodies. For detection the membrane was incubated with LumiGLO containing peroxide and exposed to X-ray film.
Analysis of PKB/Akt activity was performed employing the Akt1-PKBα e Immunoprecipitation Kinase Assay Kit (Upstate Biotech.) according to the manufacturer's instructions. Lysates of HIT cells containing 1 mg of protein were subjected to immunoprecipitation. The immunoprecipitate was used for PKB/Akt kinase assay using γ[^32P]-ATP and Akt/SGK-specific substrate peptide. Phosphorylated substrates were blotted onto phosphocellulose P81 paper and analyzed by LSC.

βGK mRNA = βGK mRNA steady-state levels (comparative RT-PCR) in cultured pancreatic islets / insulin-producing cells; type: cell-based, rat
Method: Insulin-producing HIT-T15 cells were obtained from ATCC. HIT cells were reported to show glucose responsiveness at subphysiological concentrations between 0.1 and 2 mM (Sharma et al., 1995). HIT cells were grown in RPMI 1640 medium supplemented with 100 units/ml penicillin, 100 μg/ml streptomycin, 2 mM glutamine and 10% fetal calf serum at 5% CO2 and 37° C. Pancreatic islets were isolated from normally fed male Wistar rats and from mice by collagenase digestion. Isolated islets were incubated overnight at 5% CO2 and 37° C. in RPMI 1640 medium, supplemented as described above. Transfection of HIT-T15 and islet cells was performed overnight by the lipofectamine technique in RPMI 1640 medium, without serum and antibiotics. For on-line monitoring, cells were grown and transfected on 24-mm glass coverslips. Following transfection, HIT cells were cultured for 12-18 h in RPMI 1640 medium containing 0.1 mM glucose, 10% fetal calf serum and supplemented as above. Before stimulation, islets and islet cells were incubated for 2 h in RPMI 1640 medium, supplemented as above but containing 3 mM glucose. All expression constructs were prepared using the Qiagen Plasmid Maxi Kit (Qiagen), except those used to produce the adenoviruses which where purified by ultracentrifugation via a CsCI-gradient (as described in Sambrook et al, 1989).
All experiments were performed in RPMI 1640 medium, supplemented as above. Protein kinase inhibitors, antibodies or nifedipine were added to the culture medium 30 min prior to stimulation and were kept in the medium throughout stimulation. After stimulation islets, islet cells and HIT cells were cultured further at substimulatory glucose concentrations (0.1 mM for HIT cells and 3 mM for islets and islet cells). For RNA-analysis, islets and cells were harvested 60 min after start of stimulation, if not indicated otherwise. For analysis of protein kinase activities or tyrosine phosphorylation, cells were harvested immediately following stimulation.
RNA Analysis Levels of βGK mRNA were analyzed by RNase-protection assays and comparative RT-PCR. […] Quantification of the protected complexes was performed by phosphorimaging. […] Levels of μGK mRNA were analyzed by RT-PCR using primers 5′-[…]-3′(SEQ ID NO: 1) and 5′-[…]-3′(SEQ ID NO: 2) for characterizing μGK mRNA in HIT cells and primers 5′-[…]-3′(SEQ ID NO: 3) and 5′-[…]-3′(SEQ ID NO: 4) for μGK mRNA in rat and mouse pancreatic islets and islet cells. Levels of μ-actin mRNA were analyzed by RT-PCR using primers 5′-[…]-3′(SEQ ID NO: 5) and 5′-[…]-3′(SEQ ID NO: 6). […] PCR products were separated on a 6% polyacrylamide sequencing gel and analyzed by phosphorimaging. […]

rat βGK promoter = experiment: βGK promoter-driven GFP expression in co-transfected human islet cells; type: cell-based; details: 5 mU/ml insulin for 5 min, sub-stimulatory glucose
Method: Data are presented as the ratio of fluorescence obtained at minutes 240 and 60 and represent mean values ±S.E. (n=11).
Detection of fluorescence by digital imaging fluorescence microscopy was performed as described previously (Leibiger et al., 1998a; Leibiger et al., 1998b). Briefly, transfected cells were grown on 24-mm glass coverslips. After stimulation the coverslips were placed into a perifusion chamber which was mounted on an inverted microscope (Zeiss Axiovert 135TV). Temperature was kept at 37° C. and the cells were perfused with RPMI 1640 medium. The objective lens used was a Zeiss-Fluar ×40/1.30 oil Imm Korr. Fluorescence imaging was performed with a cooled charged-coupled device camera (CH250 with KAF 1400, Photometrics, Tucson, Ariz.) connected to an imaging system (Inovision) with fluorescence excitation from a SPEX fluorolog-2 CM1T11I spectrofluorometer (Spex Industries). […]
On-line monitoring was initiated 60 min following the start of stimulation and the 60-min value of GFP- or DsRed-fluorescence was set to 1.0. Cells to be monitored were chosen randomly at minute 60 from six fields of vision and fluorescence was monitored up to minute 240. By overlaying the fluorescence and phase-contrast images, the position of cells on the coverslip could be checked. Fluorescence intensity was calculated by using the ISee-software for UNIX (Inovision Corporation).

CC(=O)OCOC(c1ccc2ccccc2c1)P(=O)(OCOC(C)=O)OCOC(C)=O (centres unmarked) [HNMPA-(AM)3]
effect on glucose-induced activation of PKB (PKB/c-Akt; FIG. 7E, PKB activity 10 min after start of glucose stimulation): abolished

autocamtide-2 related inhibitory peptide
effect of inhibitor on insulin-stimulated βGK mRNA steady-state levels (βGK mRNA; 5 mU/ml insulin, 400 nM AC, FIG. 5B): altered neither

insulin
βGK promoter-driven GFP expression upon insulin stimulation (rat βGK promoter): up-regulation
exogenous insulin sufficient to evoke βGK mRNA levels (βGK mRNA; pancreatic islets, fully supplemented culture medium, substimulatory glucose): 50 μU insulin per ml
time following stimulation at which PKB activation (Ser473 phosphorylation) was observed (PKB/c-Akt; 16.7 mM glucose or 5 mU insulin/ml at substimulatory glucose): 2 min
